Experimental data published in patent publication US11000033B2, “Ketone or oxime compound, and herbicide” (NISSAN CHEMICAL CORPORATION, priority 2014, dated 2021).

Key:
Type in all cases: in vivo
[1] = test system: Echinochloa oryzacola Vasing.; assay: Test Example 1: herbicidal activity, application before weed generation in submerged conditions (symbol A); details: application herbicide amount 320 g/ha
How it was run: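 Weeds are sown into submerged alluvial soil alongside transplanted 2.5-leaf rice, and the compound, as an emulsion diluted to a set rate, is applied onto the water before emergence. Rating on the 0–5 herbicidal-ratio scale follows 3 weeks of greenhouse growth at 25–30 °C.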

transplanted rice plant = assay: Test Example 1: effect on crop, application before weed generation in submerged conditions (symbol a); details: application herbicide amount 320 g/ha
How it was run: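 Alluvial soil pots flooded to 4 cm water, sown with Echinochloa oryzacola, Scirpus juncoides and Monochoria vaginalis, then transplanted with 2.5 leaf stage rice seedlings; pre-emergence application. Greenhouse 25° C. to 30° C.; scored 0–5 by herbicidal ratio 3 weeks after application.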

[2] = test system: Echinochloa oryzacola Vasing.; assay: Test Example 2: herbicidal activity, application during weed generation in submerged conditions (symbol A); details: Table 23; application herbicide amount 320 g/ha; grade 0-5 by criteria of Test Example 1
How it was run: (§1)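 Compound was applied as a water-diluted emulsion into the standing water of flooded pots (4 cm) once co-sown weeds reached one to two leaves. Greenhouse temperature was 25° C. to 30° C., soil was alluvial, and each species was rated visually after 3 weeks.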

Monochoria vaginalis = assay: Test Example 2: herbicidal activity, application during weed generation in submerged conditions (symbol C); details: Table 23; application herbicide amount 320 g/ha; grade 0-5 by criteria of Test Example 1
How it was run: as §1

[3] = test system: directly sowed rice plant; assay: Test Example 3: effect on crop by foliage application, Wagner pot (symbol b); details: application herbicide amount 320 g/ha
How it was run: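 Wagner pot (1/10000 are), alluvial soil, submerged 0.1–0.5 cm; sown E. crus-galli var. crus-galli, L. chinensis, C. difformis, rice; greenhouse 25–30 °C.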

Setaria viridis = assay: Test Example 4: herbicidal effect by soil treatment (symbol G); details: application herbicide amount 320 g/ha
How it was run: (§2)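 Seeds were sown in sterilized diluvial soil, covered with about 1.5 cm of soil, and the soil surface was sprayed with a water-diluted emulsion of the compound at a predetermined rate. Plants grew in a greenhouse at 25° C. to 30° C.; effects were scored visually 3 weeks after application.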

Avena fatua = assay: Test Example 4: herbicidal effect by soil treatment (symbol I); details: application herbicide amount 320 g/ha
How it was run: as §2

rapeseed = assay: Test Example 4: effect on crop by soil treatment (symbol g); details: application herbicide amount 320 g/ha
How it was run: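 Grown at 25° C. to 30° C. in a greenhouse, the crops came from seed sown spot-wise in sterilized diluvial soil under roughly 1.5 cm of covering soil.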

Digitaria ciliaris = assay: Test Example 5: herbicidal effect by foliage application, plastic box (symbol F); details: 320 g/ha, 3 weeks after application
How it was run: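 Visual herbicidal score, taken three weeks post-application, of seedlings sprayed on the foliage with water-diluted emulsion at a predetermined amount; plants were 14 days old, greenhouse-raised at 25° C. to 30° C.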

corn = assay: Test Example 5: effect on crop by foliage application, plastic box (symbol c); details: 320 g/ha, 3 weeks after application
How it was run: (§3)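 Foliage-application test plants come from spot sowing in sterilized diluvial soil under a soil layer of about 1.5 cm, grown at 25° C. to 30° C. in a greenhouse.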

wheat = assay: Test Example 5: effect on crop by foliage application, plastic box (symbol e); details: 320 g/ha, 3 weeks after application
How it was run: as §3

Row | Compound | Herbicidal effect grade, A: Echinochloa oryzacola Vasing. [1] | Effect grade on crop, a: transplanted rice plant (transplanted rice plant) | Herbicidal effect grade, A: Echinochloa oryzacola Vasing. [2] | Herbicidal effect grade, C: Monochoria vaginalis (Monochoria vaginalis) | effect on crop b (directly sowed rice plant), grade 0-5 [3] | G: Setaria viridis, herbicidal effect grade (Setaria viridis) | I: Avena fatua, herbicidal effect grade (Avena fatua) | g: rapeseed, effect on crop grade (rapeseed) | F: Digitaria ciliaris, herbicidal effect grade (Digitaria ciliaris) | c: corn, effect on crop grade (corn) | e: wheat, effect on crop grade (wheat)
1 | CCOC(=O)C(CC)(C(C)=O)C1CC(O)=C(c2c(C)cc(C)cc2C)C1=O (centres unmarked) [2-012] | 0 (Herbicidal ratio of 5% or lower (almost no effect)) | 0 (Herbicidal ratio of 5% or lower (almost no effect)) | 0 (Herbicidal ratio of 5% or lower (almost no effect)) | 0 (Herbicidal ratio of 5% or lower (almost no effect)) | 0 (Herbicidal ratio of 5% or lower (almost no effect)) | 0 (Herbicidal ratio of 5% or lower (almost no effect)) | 0 (Herbicidal ratio of 5% or lower (almost no effect)) | 0 (Herbicidal ratio of 5% or lower (almost no effect)) | 0 (Herbicidal ratio of 5% or lower (almost no effect)) | 0 (Herbicidal ratio of 5% or lower (almost no effect)) | 0 (Herbicidal ratio of 5% or lower (almost no effect))
2 | CCOC(=O)C(C(=O)c1ccccn1)C1CC(O)=C(c2c(C)cc(C)cc2C)C1=O (centres unmarked) [2-013] | 0 (Herbicidal ratio of 5% or lower (almost no effect)) | 0 (Herbicidal ratio of 5% or lower (almost no effect)) | 0 (Herbicidal ratio of 5% or lower (almost no effect)) | 0 (Herbicidal ratio of 5% or lower (almost no effect)) | 0 (Herbicidal ratio of 5% or lower (almost no effect)) | 1 (Herbicidal ratio of 5% or higher and lower than 20%) | 0 (Herbicidal ratio of 5% or lower (almost no effect)) | 0 (Herbicidal ratio of 5% or lower (almost no effect)) | 4 (Herbicidal ratio of 70% or higher and lower than 90%) | 4 (Herbicidal ratio of 70% or higher and lower than 90%) | 0 (Herbicidal ratio of 5% or lower (almost no effect))
3 | COC(=O)C(C(=O)C1CC1)C1CC(O)=C(c2c(C)cc(C)cc2C)C1=O (centres unmarked) [2-014] | 4 (Herbicidal ratio of 70% or higher and lower than 90%) | 1 (Herbicidal ratio of 5% or higher and lower than 20%) | 4 (Herbicidal ratio of 70% or higher and lower than 90%) | 0 (Herbicidal ratio of 5% or lower (almost no effect)) | 5 (Herbicidal ratio of 90% or more (almost completely withered)) | 5 (Herbicidal ratio of 90% or more (almost completely withered)) | 0 (Herbicidal ratio of 5% or lower (almost no effect)) | 0 (Herbicidal ratio of 5% or lower (almost no effect)) | 3 (Herbicidal ratio of 40% or higher and lower than 70%) | 3 (Herbicidal ratio of 40% or higher and lower than 70%) | 0 (Herbicidal ratio of 5% or lower (almost no effect))
4 | Cc1cc(C)c(C2=C(O)CC(CC(=O)Cc3ccccc3)C2=O)c(C)c1 (centres unmarked) [2-015] | 0 (Herbicidal ratio of 5% or lower (almost no effect)) | 0 (Herbicidal ratio of 5% or lower (almost no effect)) | 0 (Herbicidal ratio of 5% or lower (almost no effect)) | 0 (Herbicidal ratio of 5% or lower (almost no effect)) | 4 (Herbicidal ratio of 70% or higher and lower than 90%) | 3 (Herbicidal ratio of 40% or higher and lower than 70%) | 0 (Herbicidal ratio of 5% or lower (almost no effect)) | 0 (Herbicidal ratio of 5% or lower (almost no effect)) | 5 (Herbicidal ratio of 90% or more (almost completely withered)) | 4 (Herbicidal ratio of 70% or higher and lower than 90%) | 0 (Herbicidal ratio of 5% or lower (almost no effect))
5 | Cc1cc(C)c(C2=C(O)CC(CC(=O)C(C)C)C2=O)c(C)c1 (centres unmarked) [2-016] | 4 (Herbicidal ratio of 70% or higher and lower than 90%) | 4 (Herbicidal ratio of 70% or higher and lower than 90%) | 4 (Herbicidal ratio of 70% or higher and lower than 90%) | 0 (Herbicidal ratio of 5% or lower (almost no effect)) | 5 (Herbicidal ratio of 90% or more (almost completely withered)) | 5 (Herbicidal ratio of 90% or more (almost completely withered)) | 0 (Herbicidal ratio of 5% or lower (almost no effect)) | 2 (Herbicidal ratio of 20% or higher and lower than 40%) | 5 (Herbicidal ratio of 90% or more (almost completely withered)) | 4 (Herbicidal ratio of 70% or higher and lower than 90%) | 0 (Herbicidal ratio of 5% or lower (almost no effect))
6 | Cc1cc(C)c(C2=C(O)CC(CC(=O)C3CC3)C2=O)c(C)c1 (centres unmarked) [2-017] | 5 (Herbicidal ratio of 90% or more (almost completely withered)) | 5 (Herbicidal ratio of 90% or more (almost completely withered)) | 5 (Herbicidal ratio of 90% or more (almost completely withered)) | 4 (Herbicidal ratio of 70% or higher and lower than 90%) | 5 (Herbicidal ratio of 90% or more (almost completely withered)) | 5 (Herbicidal ratio of 90% or more (almost completely withered)) | 0 (Herbicidal ratio of 5% or lower (almost no effect)) | 5 (Herbicidal ratio of 90% or more (almost completely withered)) | 5 (Herbicidal ratio of 90% or more (almost completely withered)) | 2 (Herbicidal ratio of 20% or higher and lower than 40%) | 0 (Herbicidal ratio of 5% or lower (almost no effect))
7 | CC(=O)CC1CC(OC(=O)C(C)(C)C)=C(c2c(C)cc(C)cc2C)C1=O (centres unmarked) [2-018] | 5 (Herbicidal ratio of 90% or more (almost completely withered)) | 4 (Herbicidal ratio of 70% or higher and lower than 90%) | 4 (Herbicidal ratio of 70% or higher and lower than 90%) | 0 (Herbicidal ratio of 5% or lower (almost no effect)) | 5 (Herbicidal ratio of 90% or more (almost completely withered)) | 5 (Herbicidal ratio of 90% or more (almost completely withered)) | 0 (Herbicidal ratio of 5% or lower (almost no effect)) | 3 (Herbicidal ratio of 40% or higher and lower than 70%) | 1 (Herbicidal ratio of 5% or higher and lower than 20%) | 0 (Herbicidal ratio of 5% or lower (almost no effect)) | 0 (Herbicidal ratio of 5% or lower (almost no effect))
